Results published in patent US9862678B2, “3,4-diaminobenzenesulfonamide derivatives for inhibiting cell death” (VIB VZW, priority 2014, dated 2018).

What was measured:
[1] = system: IMR-32 neuroblastoma cell line; assay: Inhibition of erastin-induced ferroptosis in IMR-32 cells (Sytox Green cell death readout); assay type: cell-based; conditions: Homo sapiens; inhibiting ferroptosis in the IMR-32 neuroblastoma cell line stimulated with 10 μM erastin; compounds 1 nM to 1 μM, triplicate
Procedure: In the present disclosure, the potency of a compound inhibiting (or reducing) ferroptosis and/or oxytosis are determined in in vitro or in vivo assays. Typically in vitro assays are used to measure the potency of a candidate compound. Examples of suitable in vitro assays are cellular assays. One non-limiting example of an assay involves the use of the IMR-32 neuroblastoma cell line. The latter is stimulated to enter into ferroptosis upon stimulation with 10 μM erastin, a documented ferroptosis inducer (see, for example, Dixon et al. (2012) Cell 149, 1060-1072, and ferroptosis inhibitors are evaluated for the prevention of erastin-induced ferroptosis. Yet another assay is based the glutamate-induced cell death in the hippocampal cell line HT22 and ferroptosis/oxytosis inhibitors are evaluated for the prevention of cell death (see N. Henke et al. (2013) Cell Death and Disease 4, e470). Still another assay is based on the sorafinib-induced cell death (described to be iron dependent cell death) in hepatocellular carcinoma cells and ferroptosis inhibitors are evaluated for the prevention of cell death (see C. Louandre et al. (2013) Int. J. Cancer 133, 1732). The calculated potency of a compound inhibiting ferroptosis and/or oxytosis is typically depicted as an IC50 value. Examples of suitable in vivo assays are typically pre-clinical disease models of, for example, mice for the diseases benefiting the application of ferroptosis and/or oxytosis inhibitors, as described herein. One non-limiting example of an in vivo assay is based on inducing liver damage in mice by administering the herbicide diquat dibromide monohydrate and ferroptosis inhibitors are evaluated based on reduced levels of liver transaminases in serum (see Q. Ran et al. (2004) J. Biol. Chem. 279, 53, 55137).
The IC50 values for the individual compounds of the disclosure were determined in the neuroblastoma, IMR-32 cell line. In brief, IMR-32 cells were subjected to 10 μM erastin, the latter compound is known to induce ferroptosis. A concentration gradient (ranging from 1 nM to 1 μM) of the compounds was applied to the cells. These experiments were performed in a 96-well format (in triplicate), and cell death was analyzed in a fluorescent plate reader by use of a fluorescent cell death dye (1.5 μM Sytox Green). The IC50 values depicted in Table 1 are the concentration values for the individual compounds which are able to overcome ferroptosis.

[2] = Kinetic solubility (turbidity); assay type: physicochemical; conditions: kinetic solubility by turbidity, test range 3.125 μM to 200 μM, 10 mM PBS pH 7.4
Procedure: (§1) Unless otherwise stated, laboratory reagent grade solvents were used. Reagents were obtained from Sigma-Aldrich, Acros Organics or Fluorochem and were used without further purification. Characterization of all compounds was done with ^1H and ^13C NMR and mass spectrometry. ^1H and ^13C NMR spectra were recorded on a 400 MHz Bruker Avance III Nanobay spectrometer with Ultrashield and analyzed by use of MestReNova analytical chemistry software. Chemical shifts are in ppm, and coupling constants are in hertz (Hz). ES mass spectra were obtained from an Esquire 3000 plus ion trap mass spectrometer from Bruker Daltonics. Purities were determined with two diverse HPLC systems based either on mass determination or on UV detection. A Waters acquity UPLC system coupled to a Waters TQD ESI mass spectrometer or a Waters SQD ESI mass spectrometer was used both in combination with a Waters TUV detector. Water (A) and CH3CN (B) were used as eluents. LC-MS spectra were recorded on an Agilent 1100 series HPLC system using a Alltech Prevail C18 column (2.1 mm×50 mm, 3 μm) coupled with an Esquire 3000 plus as MS detector, and a “method A” 5-100% B, 20 min gradient was used with a flow rate of 0.2 mL/min. Formic acid, 0.1%, was added to solvents A and B. Waters Acquity UPLC BEH C18 1.7 μm, 2.1 mm×50 mm column was used. Solvent A consisted of water with 0.1% formic acid. Solvent B consisted of acetonitrile with 0.1% formic acid. Method I involved the following: 0.15 min 95% A, 5% B, then in 1.85 min from 95% A, 5% B to 95% B, 5% A, then 0.25 min (0.350 mL/min), 95% B, 5% A. The wavelength for UV detection was 254 nm. Method II involved the following: flow 0.4 mL/min, 0.25 min 95% A, 5% B, then in 4.75 min to 95% B, 5% A, then 0.25 min 95% B, 5% A, followed by 0.75 min 95% A, 5% B. The wavelength for UV detection was 214 nm. Where necessary, flash purification was performed on a Biotage ISOLERA One flash system equipped with an internal variable dual wavelength diode array detector (200-400 nm). For normal phase purifications SNAP cartridges (10-340 g, flow rate of 10-100 mL/min) were used, and reversed phase purifications were done making use of KP-C18 containing cartridges. Dry sample loading was done by self-packing samplet cartridges using silica and Celite 545, respectively, for normal and reversed phase purifications. Gradients used varied for each purification. Mouse and rat plasma came from Innovative Research. The turbidity in the kinetic solubility experiments was measured using the UV/vis spectrophotometer Synergy MX, Biotek with Gen5.

[3] = Microsomal stability, human microsomes
Procedure: (§2) In a next step a subset of compounds was subjected to ADME analysis. Thereto the metabolism by murine and human microsomes of representative compounds of the disclosure was measured. The compound ferrostatin-1 (Fer-1, described in S. J. Dixon et al. (2012) Cell 149, 1060-1072), originally described to inhibit ferroptosis, was used a control. In addition, the plasma stability in murine and human plasma was measured. The percentage of remaining compounds was measured by LC-MS.

[4] = Microsomal stability, murine microsomes
Procedure: as §2

[5] = Plasma stability, human plasma; assay type: in vitro ADME; conditions: for recovery at 6 h: human
Procedure: Thereto the metabolism by murine and human microsomes of representative compounds of the disclosure was measured. […] In addition, the plasma stability in murine and human plasma was measured. The percentage of remaining compounds was measured by LC-MS.

[6] = Plasma stability, murine plasma; assay type: in vitro ADME, mouse; conditions: for recovery at 6 h: mouse
Procedure: as §1

[7] = aqueous buffer, kinetic from dmso stock
[8] = human microsomes (CYP450 and other NADPH-dependent enzymes)
[9] = mouse microsomes (CYP450 and other NADPH-dependent enzymes)

Row | SMILES | solubility [2, 7] [µM] | IC50 [1] [µM] | further results
1 | CCNS(=O)(=O)c1ccc(NC2C3CC4CC(C3)CC2C4)c(NCc2cncnc2)c1 (stereo not drawn) [Compound 46, 4-(adamantan-2-ylamino)-N-ethyl-3-((pyrimidin-5-ylmethyl)amino)benzenesulfonamide] | – | 0.047 | –
2 | CNS(=O)(=O)c1ccc(NC2CCCCC2)c(NCc2ccccc2)c1 [Compound 47, 3-(benzylamino)-4-(cyclohexylamino)-N-methylbenzenesulfonamide] | – | 0.0037 | –
3 | CNS(=O)(=O)c1ccc(NC2CCCCC2)c(NCc2ccncc2)c1 [Compound 48, 4-(cyclohexylamino)-N-methyl-3-((pyridin-4-ylmethyl)amino)benzenesulfonamide] | – | 0.015 | –
4 | CNS(=O)(=O)c1ccc(NC2C3CC4CC(C3)CC2C4)c(NCc2ccccc2)c1 (stereo not drawn) [Compound 49, 4-(adamantan-2-ylamino)-3-(benzylamino)-N-methylbenzenesulfonamide] | – | 0.0049 | –
5 | CNS(=O)(=O)c1ccc(NC2C3CC4CC(C3)CC2C4)c(NCc2ccncc2)c1 (stereo not drawn) [Compound 50, 4-(adamantan-2-ylamino)-N-methyl-3-((pyridin-4-ylmethyl)amino)benzenesulfonamide] | – | 0.0064 | –
6 | CC(C)(C)NS(=O)(=O)c1ccc(NC2CCCCC2)c(NCc2ccccc2)c1 [Compound 51, 3-(benzylamino)-N-(tert-butyl)-4-(cyclohexylamino)benzenesulfonamide] | – | 0.0062 | –
7 | CC(C)(C)NS(=O)(=O)c1ccc(NC2CCCCC2)c(NCc2ccncc2)c1 [Compound 52, N-(tert-butyl)-4-(cyclohexylamino)-3-((pyridin-4-ylmethyl)amino)benzenesulfonamide] | – | 0.011 | –
8 | CC(C)(C)NS(=O)(=O)c1ccc(NC2C3CC4CC(C3)CC2C4)c(NCc2ccccc2)c1 (stereo not drawn) [Compound 53, 4-(adamantan-2-ylamino)-3-(benzylamino)-N-(tert-butyl)benzenesulfonamide] | – | 0.0034 | –
9 | CC(C)(C)NS(=O)(=O)c1ccc(NC2C3CC4CC(C3)CC2C4)c(NCc2ccncc2)c1 (stereo not drawn) [Compound 54, 4-(adamantan-2-ylamino)-N-(tert-butyl)-3-((pyridin-4-ylmethyl)amino)benzenesulfonamide] | – | 0.0052 | –
10 | CC(C)(C)OCCNS(=O)(=O)c1ccc(NC2CCCCC2)c(NCc2ccccc2)c1 [Compound 55, 3-(benzylamino)-N-(2-(tert-butoxy)ethyl)-4-(cyclohexylamino)benzenesulfonamide] | – | 0.022 | –
11 | CCOC(=O)c1ccc(NC2CCCCC2)c(N)c1 [Fer-1, ferrostatin-1, reference compound] | – | – | solubility [2]: >200 µM; Microsomal stability Half-life (t1/2) (min) Human [3, 8]: 6.9 ± 0.2 min; Microsomal stability Half-life (t1/2) (min) Mouse [4, 9]: 1.9 ± 0.6 min; Plasma stability % recovery after 6 h Human ([5]; human plasma, 6 h, percentage of remaining parent compound, LC-MS): 100%; Plasma stability % recovery after 6 h Mouse ([6]; mouse plasma, 6 h, percentage of remaining parent compound, LC-MS): 0%

Second part, led by results:

Row | solubility [2, 7] [µM] | SMILES | IC50 [1] [µM] | further results
12 | 12.5 to 25 | CCNS(=O)(=O)c1ccc(NC2CCCCC2)c(N)c1 [Compound 22, 3-amino-4-(cyclohexylamino)-N-ethylbenzenesulfonamide] | 0.067 | Microsomal stability Half-life (t1/2) (min) Human ([3]; human, microsomes): 37 ± 3 min; Microsomal stability Half-life (t1/2) (min) Mouse ([4]; mouse, microsomes): 31 ± 5 min; recovery at 6 h [5]: 81.9%; recovery at 6 h [6]: 86.2%
13 | > 200 | CN1CCN(S(=O)(=O)c2ccc(NC3CCCCC3)c(N)c2)CC1 [Compound 31, N1-cyclohexyl-4-((4-methylpiperazin-1-yl)sulfonyl)benzene-1,2-diamine] | 0.206 | –
14 | > 200 | Nc1cc(S(=O)(=O)N2CCOCC2)ccc1NC1CCCCC1 [Compound 32, N1-cyclohexyl-4-(morpholinosulfonyl)benzene-1,2-diamine] | 0.208 | –
15 | 12.5 to 25 | CCNS(=O)(=O)c1ccc(NC2CCCCC2)c(NCc2ccccc2)c1 [Compound 37, 3-(benzylamino)-4-(cyclohexylamino)-N-ethylbenzenesulfonamide] | 0.004 | Microsomal stability Half-life (t1/2) (min) Human ([3]; human, microsomes): 88 ± 16 min; Microsomal stability Half-life (t1/2) (min) Mouse ([4]; mouse, microsomes): 187 ± 41 min; recovery at 6 h [5]: 100%; recovery at 6 h [6]: 98.6%
16 | 100 to 200 | CCNS(=O)(=O)c1ccc(NC2CCCCC2)c(NCc2cncnc2)c1 [Compound 39, 4-(cyclohexylamino)-N-ethyl-3-((pyrimidin-5-ylmethyl)amino)benzenesulfonamide] | 0.187 | –
17 | 12.5 to 25 | CCNS(=O)(=O)c1ccc(NC2C3CC4CC(C3)CC2C4)c(NCc2ccccc2)c1 (stereo not drawn) [Compound 44, 4-(adamantan-2-ylamino)-3-(benzylamino)-N-ethylbenzenesulfonamide] | 0.0035 | Microsomal stability Half-life (t1/2) (min) Human ([3]; human, microsomes): 36 ± 11 min; Microsomal stability Half-life (t1/2) (min) Mouse ([4]; mouse, microsomes): 31 ± 6 min; recovery at 6 h [5]: 100%; recovery at 6 h [6]: 99.4%
18 | 12.5 to 25 | CCNS(=O)(=O)c1ccc(NC2C3CC4CC(C3)CC2C4)c(NCc2ccncc2)c1 (stereo not drawn) [Compound 45, 4-(adamantan-2-ylamino)-N-ethyl-3-((pyridin-4-ylmethyl)amino)benzenesulfonamide] | 0.0039 | Microsomal stability Half-life (t1/2) (min) Human [3, 8]: 64 ± 10 min; Microsomal stability Half-life (t1/2) (min) Mouse [4, 9]: 26 ± 5 min; recovery at 6 h [5]: 100%; recovery at 6 h [6]: 100%
19 | 25 to 50 | CN1CCN(S(=O)(=O)c2ccc(NC3CCCCC3)c(NCc3ccccc3)c2)CC1 [Compound 56, N2-benzyl-N1-cyclohexyl-4-((4-methylpiperazin-1-yl)sulfonyl)benzene-1,2-diamine] | 0.033 | –
20 | 25 to 50 | O=S(=O)(c1ccc(NC2CCCCC2)c(NCc2ccccc2)c1)N1CCOCC1 [Compound 57, N2-benzyl-N1-cyclohexyl-4-(morpholinosulfonyl)benzene-1,2-diamine] | 0.03 | –
21 | 100 to 200 | O=S(=O)(NCCO)c1ccc(NC2CCCCC2)c(NCc2ccccc2)c1 [Compound 58, 3-(benzylamino)-4-(cyclohexylamino)-N-(2-hydroxyethyl)benzenesulfonamide] | 0.014 | –
